Source: US8410310B2, “Trypsin-like serine protease inhibitors, and their preparation and use” (The Medicines Company (Leipzig) GmbH, priority 2006, dated 2013)

Tests used:
[1] = tested on: t-PA-induced lysis of whole blood clots; assay: Whole blood fibrinolysis assay (ROTEM, EXTEM with t-PA); assay type: cell-based, human; conditions: human whole blood, t-PA 100 U/mL, Ly60; read-out: concentration resulting in 50% suppression of clot lysis (IC50, median [25%; 75% percentile])
Method: (§1) Venous blood was withdrawn from the antecubital vein from healthy volunteers after written informed consent in accordance with local and federal guidelines with approval of the local review board (Ethikkommission, Klinikum Charité, Sauerbruchweg 5, 10117 Berlin). The blood was mixed with 0.11 mol/L sodium citrate (1:10). For ROTEM® analysis, whole citrated blood was used within 8 h after collection. Platelet-rich plasma (PRP) was prepared from citrated blood by centrifugation at 330×g for 10 min at room temperature, platelet-poor plasma (PPP) was collected following centrifugation at 1220×g for 12 min. The PRP was then adjusted to 3×10^8 platelets per mL using the autologous PPP. PRP was maintained at room temperature for less than 4 h before analysis. The remaining PPP was subjected to a high-speed centrifugation at 40,000×g for 30 min at 4° C. to remove any particulate material and was then stored at −70° C. until use.
(§2) The antifibrinolytic activity of Compound No. 3 in comparison to aprotinin and tranexamic acid was investigated in plasma and whole blood assays. In both assays, tissue factor was added to initiate rapid clot formation via the extrinsic pathway which produces a clot that remains stable for several hours under normal conditions. Supplementation of plasma or whole blood with tissue-type plasminogen activator (t-PA) before stimulation results in activation of endogenous plasminogen and thus fibrinolysis while the initial clot formation is not impaired. […] A final concentration of 50 U/mL and 100 U/mL in plasma and whole blood, respectively, was chosen to achieve complete lysis within about 60 min. In the presence of antifibrinolytics, clot lysis is delayed in a concentration-dependent manner.
Fibrinolysis in whole blood was studied with rotational thromboelastometry (Luddington, Clin. Lab. Haematol. 27: 81-90, 2005) using a computerized, multi-channel ROTEM® instrument (Pentapharm, Munich, Germany) (Ganter et al., Anesth. Analg. 106: 1366-75, 2008). Activation of test samples accelerated the measurement process and enhanced reproducibility compared with conventional thromboelastography. To allow observation of fibrinolysis, ROTEM® analysis with tissue factor activation (EXTEM) was modified through addition of t-PA (Nielsen et al. Blood Coagul. Fibrinolysis 17: 75-81, 2006). Citrated blood was pre-incubated at 37° C. for 5 min with test compound or saline before tissue factor, CaCl2 and t-PA (100 U/mL final concentration) were added to start the reaction. Fibrinolysis was determined by measuring loss of clot strength with time and was recorded as Ly60 (percentage reduction of the maximum amplitude at 60 min after the onset of clotting). In control samples without inhibitor, clots were lysed completely within 60 min, such that Ly60 was above 90%. By plotting Ly60 versus test compound concentration, IC50 values for each compound were calculated.

[2] = tested on: t-PA-induced fibrinolysis in plasma; assay: Plasma fibrinolysis assay (turbidometric); assay type: biochemical; conditions: human plasma, t-PA 50 U/mL; read-out: IC50 on t-PA-induced fibrinolysis in plasma (median [25%; 75% percentile])
Method: as §1, §2
Inhibition of fibrinolysis in plasma was examined using a turbidometric method in 96-well flat-bottom plates. The time course of clot formation and lysis, reflected by an initial increase and subsequent decrease in turbidity, was recorded by continuously measuring the optical density (OD) at 405 nm. Similar models have been used widely to study the clot lysis process in human plasma (Kim et al., J. Thromb. Haemost. 5: 1250-6, 2007) as well as its inhibition by antifibrinolytic drugs (Sperzel et al., J. Thromb. Haemost. 5: 2113-8, 2007). Frozen and thawed human plasma (PPP) was pre-incubated with test compound or vehicle (Owren's Veronal buffer) for 5 min at 37° C. […] OD at 405 nm was monitored every 45 s for 180 min at 37° C. with a microplate reader (POLARstar OPTIMA, BMG Labtech, Offenburg, Germany). Fibrinolysis was quantified as the relative decrease in OD at 45 min after the maximum OD was reached. […]

NC[C@H]1CC[C@H](C(=O)O)CC1 [tranexamic acid, trans-4-(aminomethyl)cyclo-hexanecarboxylic acid]
IC50 [1]: 2.75 µM
IC50 [2]: 4.22 µM
